“Also recorded” adds a separate entry of the source.
Assays:
antibodies to HIV-1 [1] = test: EIA of HIV-1 gp41 peptide-protein conjugates against serum pools; type: binding, human; conditions: peptide conjugated via C-terminus to BSA (SMCC), coated at 10 micrograms peptide/ml; 1:101 dilution of HIV+ serum pool; Figure 1
Protocol: (§1) The free peptides or peptide-protein conjugates of Figures 1-13 were initially screened for immunoreactivity by coating each well of polystyrene microtiter EIA plates (Costar, Cambridge, Massachusetts, U.S.A.) with 0.2 ml amounts of concentrations of 5-50 micrograms/ml peptide in Tris buffer, 10 mM, pH 8.0, at 4°C overnight. Peptides or peptide-protein conjugates showing immunoreactivity by EIA were then further diluted for coating to determine the minimal concentrations required that allowed maximal immunoreactivity with antibodies to HIV, and minimal nonspecific reactivity with normal sera. The EIA tests were performed as follows: The coating solution was removed from each well and the wells were blocked at 37°C for 30 minutes with a solution of 50 mM phosphate, 100 mM NaCl, pH 7.4, 1% BSA, 0.5% gelatin. The wells were then aspirated dry with a microtiter plate washer and washed 3 times with a solution of 50 mM phosphate, 100 mM NaCl, .05% Tween 20, (trademark) pH 7.4 (PBST). A 1:101 dilution (in PBST with 1% BSA, 1% NRS) of the primate serum to be tested was then added as 0.2 ml to each washed well and the plates were incubated at 37°C for 30 minutes. The plates were then washed x 3 with PBST, and 0.2 ml amounts of a 1:2000 dilution of goat anti-human (GAH) peroxidase enzyme conjugate (Organon Teknika, Cappel, Melvern, Pennsylvania, U.S.A.) that recognized human IgG, IgA, and IgM were added to each well, and the plates were incubated for 30 minutes at 37°C. The plates were then washed x 3 with PBST and incubated with 0.2 ml/well substrate consisting of 0,1M citric acid pH 5.2, 0.1 mg/ml o-phenylene diamine, 0.01% H₂O₂, at room temperature in the dark for 10 minutes. Reactions were stopped with 50 microliters of 4N H₂SO₄, and the color development was quantitated in a Multiscan plate reader at A₄₉₂. In each series of experiments positive and negative controls were included, and all tests were done in duplicate or quadruplicate. Most peptides and peptide conjugates were initially screened against a 1:101 dilution of pools of HIV positive or HIV negative sera, and the same serum pool was used to allow quantitative comparison of immunoreactivity of different free peptides or peptide-protein conjugates.
The peptides in Figures 1 and 5 were synthesized as described in Example 1 and conjugated to KLH or BSA as described in Example 2. These peptide-protein conjugates were coated to polystyrene microtiter plates all at a concentration 10 micrograms peptide/ml and evaluated for immunoreactivity as described in Example 3, using a 1:101 dilution of a pool of sera (HIV+/SIV+, respectively) containing antibodies to HIV-1 (Figure 1) or to HIV-2 (Figure 5), as well as pooled serum (HIV-/SIV-, respectively) containing no antibodies to HIV-1 or HIV-2. […] Since sera from patients infected with HIV-2 are relatively unavailable in the United States, the immunoreactivity of HIV-2 synthetic peptides was assessed using serum from macaques infected with SIV, obtained from the University of Washington Primate Center, Seattle, Washington, U.S.A. The AA sequence of SIV is nearly identical to HIV-2 in the region of the peptides synthesized (see Myers et al., Human Retroviruses and AIDS, 1988. A compilation of nucleic acid and amino acid sequences. Los Alamos National Laboratory, Los Alamos, New Mexico, 87545, USA).

antibodies to HIV-1 [2] = test: EIA of peptide-carrier conjugates with individual human sera; type: binding; conditions: BSA-SMCC conjugate; for immunoreactivity with positive sera: 98 sera containing antibodies to HIV-1, Figures 10B, 10C
Protocol: as §1
Figure 10A illustrates the immunoreactivity of synthetic natural peptides 2S06 and 2S09 (Figure 1) when conjugated via their C-terminal GC spacer to KLH using the heterobifunctional linker MBS. […] However, the immunoreactivity of many of the positives was low (A₄₉₂ less than 1.0), and some of the negative samples had A₄₉₂ values slightly above 0.20, resulting in minimal discrimination between negatives and positives. This poor discrimination led to a search for an improved carrier protein and/or linker.
Figure 10B illustrates the reactivity of synthetic natural peptide IWGCSGKLICTTAVPGC (2S09) when conjugated through its C-terminus to BSA via the heterobifunctional linker SMCC. […] Improvement in assay performance as compared with results of Example 5A is noted with respect to negative samples having lower A₄₉₂ values, and most positive samples having higher A₄₉₂ values. […] Because of the possibility that some of the low responsiveness might be due to antigenic differences of genetic variants in the region of this epitope, as reported for HIV isolates from Zaire (Gnann et al., Science 237:1346-1349, 1987), the natural sequence variant peptide 5S67 (Figure 3) was synthesized, chemically linked to BSA with SMCC, and tested against the same sera, plus one additional negative serum sample (Figure 10C). […] This instigated a search for unnatural sequence variants of peptide 2S09 that would retain high immunoreactivity with most sera that contained antibodies to HIV-1, and yet retain low reactivity with sera devoid of antibodies to HIV. […]

antibodies to HIV-1 [3] = test: Rapid test with peptide-BSA-colloidal gold conjugate; type: binding, human
Protocol: (§2) A test device for performing rapid tests in less than 15 minutes was prepared as illustrated in Figures 14 and 15. Referring to Figures 14 and 15, the device comprises a plastic slide 10 (approximately 1 inch wide by 3/16 inch thick by 3 1/4 inches long) having a plurality of funnel-like wells 12, each having a capacity of approximately 200 microliters, an upper inflow tract rim 14 diameter of approximately 9 mm and a lower outflow tract 16 diameter of approximately 2 mm. The undersurface of the outflow tract 16 is designed so as to provide a smooth even contact with a membrane filter 18 placed next to it in the apparatus. The membrane filter separates reactants passing through it by size, retaining those particles above a predetermined size, such as above 0.22 µm, or above 0.45 µm in size (depending upon the specific filter chosen), though other filters placed into the apparatus might separate by binding or affinity (i.e. nitrocellulose, glass). […]
An 8 ml quantity of peptide IWGCSGKLICTTAVPGC (A280nm∼=0.50) conjugated via its C-terminus and SMCC to BSA was dialyzed overnight against 2L of DI water at 4°C. […] The A₅₈₀ of each well was determined and the lowest values, indicating best protection, were at pH6.1>pH6.0>> other pH's. Using larger amounts of gold sol at pH6.1 the minimal amount of protective protein was determined to be 70 microliters of the dialyzed peptide-BSA (A₂₈₀ = 0.45). […]

[4] = EIA of 4S36 as free peptide or BSA conjugate on 3 polystyrene microtiter plates; type: binding, human; conditions: BSA-peptide conjugate, plastic type 1; Figure 9
Description: Antigenicity of each unnatural peptide is indicated by its ability as a free peptide to inhibit binding of HIV-1 antibodies to a BSA conjugate of peptide 2S09. […] Antigenicity of each peptide is indicated by its ability as a free peptide to inhibit binding of HIV-1 antibodies to a BSA conjugate of either 2S09 or peptide 5S67, a natural sequence variant reported in HIV-1 isolates from Zaire (Gnann et al., Science 237:1346-1349, 1987; and Alizon et al., Cell 46:36, 1986). […] Antigenicity of each peptide is indicated by its ability as a free peptide to inhibit binding of SIV/HIV-2 antibodies to a BSA conjugate of peptide 2S27. […] AA variants of peptide 2S27 are highlighted. […] Different groups of peptides were initially conjugated to BSA as indicated and the conjugates of each pool were first tested. […] All peptides were utilized C-terminally conjugated to BSA. […]
The free peptides or peptide-protein conjugates of Figures 1-13 were initially screened for immunoreactivity by coating each well of polystyrene microtiter EIA plates (Costar, Cambridge, Massachusetts, U.S.A.) with 0.2 ml amounts of concentrations of 5-50 micrograms/ml peptide in Tris buffer, 10 mM, pH 8.0, at 4°C overnight. […] Reactions were stopped with 50 microliters of 4N H₂SO₄, and the color development was quantitated in a Multiscan plate reader at A₄₉₂. […]

antibodies to HIV-1 [5] = test: Rapid EIA with latex-immobilized peptide reagents, HIV-1; type: binding, human; conditions: passive adsorption
Protocol: as §2
The mixture was shaken gently a room temperature for 1 hour, and then washed 3 times by centrifugation at 9,000 x g for 10 minutes, removal of supernate, and resuspension of the pellet in a 12-14 ml volume of deionized water, pH 4.5. […] It was determined that this stock solution of latex coated with peptide-BSA conjugate could be diluted 1:10-1:30 with latex diluent buffer for use in the rapid EIA described below. […]

Sequence	immunoreactivity with HIV-1 antibodies (antibodies to HIV-1 [1])	immunoreactivity with positive sera (antibodies to HIV-1 [2]; 11)	result with positive serum samples (red-purple dots) (antibodies to HIV-1 [3]; 20 sera containing antibodies to HIV-1, diluted 1:100)	result with negative sera (antibodies to HIV-1 [3]; 20 sera without antibodies to HIV-1)	positive/negative ratios [4]	reactivity with sera that did not contain antibodies to HIV-1 (antibodies to HIV-1 [2]; 85-87 negative sera, Figures 10C, 11)	A492 values of positive samples (none less than) (antibodies to HIV-1 [2]; 98 positive samples, Figure 11)	performance of free peptide passively adsorbed to latex (antibodies to HIV-1 [5])
IWGCSGKLICTTAVPGC [2S09]	maximally immunoreactive; also recorded: higher reactivity; also recorded: Significant immunoreactivity; also recorded: slightly superior immunoreactivity	very low immunoreactivity	19 of the 20	only the white color of the underlying membrane remained	–	–	–	–
VWGCSGKLICTTAVPGC [4S36]	–	striking increase in immunoreactivity of the low positives	–	–	≥ 20	remained acceptably low	≥ 1.0	produced an immunoreactive reagent

Source: patent EP0449955B1, “SYNTHETIC HIV-LIKE PEPTIDES, THEIR COMPOSITIONS AND USES” (CLARITY TECHNOLOGIES INCORPORATED, priority 1988, dated 1996)
